# Assay results reported in US8048862B2, “Macrocyclic inhibitors of hepatitis C virus replication” (priority 2008, dated 2011).
# Like-named read-outs stand apart in the source and are kept apart here.
# Assays:
# NS3/NS4 complexes = NS3/NS4 complexes (Hepatitis C virus genotype 1a, UniProt P27958); assay: NS3/NS4 inhibition activity (IC50); format: biochemical; details: Table 3, read-out: IC50
# Method in brief: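 NS3/NS4 complexes were formed and compound inhibitory concentrations determined at ambient temperature (23 °C). The buffer contained 50 mM Tris-HCl pH 7.5, 15% glycerol, 0.6 mM LDAO, 25 μM NS4A peptide and 10 mM DTT.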
# hepatitis C replicon = hepatitis C replicon EC50; format: cell-based; details: Hepatitis C virus
# From the text: NS3-NS4 inhibition activity can be determined using known assay methods.
# [1] = Table 3, hepatitis C replicon, read-out: EC50
# NS3/NS4 complexes, sequence (P27958 1027-1657): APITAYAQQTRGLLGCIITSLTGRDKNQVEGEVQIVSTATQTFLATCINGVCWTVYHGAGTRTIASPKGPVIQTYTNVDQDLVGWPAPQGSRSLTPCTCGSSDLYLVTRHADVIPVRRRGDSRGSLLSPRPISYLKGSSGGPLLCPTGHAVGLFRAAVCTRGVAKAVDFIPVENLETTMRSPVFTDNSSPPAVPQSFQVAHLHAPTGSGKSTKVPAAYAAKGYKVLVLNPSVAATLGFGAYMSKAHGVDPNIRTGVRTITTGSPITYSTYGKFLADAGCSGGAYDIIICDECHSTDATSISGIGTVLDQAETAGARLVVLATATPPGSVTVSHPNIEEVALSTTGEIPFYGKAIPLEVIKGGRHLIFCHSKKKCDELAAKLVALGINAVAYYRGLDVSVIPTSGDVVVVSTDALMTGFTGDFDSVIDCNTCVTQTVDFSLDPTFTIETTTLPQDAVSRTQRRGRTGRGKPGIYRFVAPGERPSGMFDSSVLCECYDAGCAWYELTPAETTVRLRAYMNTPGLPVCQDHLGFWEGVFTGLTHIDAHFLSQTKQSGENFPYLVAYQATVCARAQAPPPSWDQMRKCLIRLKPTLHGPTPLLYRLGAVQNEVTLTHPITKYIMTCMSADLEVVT
# NS3/NS4 complexes, sequence (P27958 1658-1711): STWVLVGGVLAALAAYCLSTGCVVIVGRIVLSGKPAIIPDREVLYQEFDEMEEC
Compound,IC50 (NS3/NS4 complexes),EC50 (hepatitis C replicon; [1]),EC50 (hepatitis C replicon)
CCn1c(O[C@@H]2C[C@H]3C(=O)N[C@]4(C(=O)NS(=O)(=O)C5(C)CC5)C[C@H]4CCCCCCC[C@H](NC(=O)OC(C)(C)C)C(=O)N3C2)nc2ccccc21 [Compound 1080],< 0.01 µM,< 0.01 µM,–
CC(C)(C)OC(=O)N[C@H]1CCCCCCC[C@@H]2C[C@@]2(C(=O)NS(=O)(=O)C2(C)CC2)NC(=O)[C@@H]2C[C@@H](OC(=O)N3Cc4cccc(F)c4C3)CN2C1=O [Compound 1081],< 0.01 µM,< 0.01 µM,–
CC(C)(C)OC(=O)N[C@H]1CCCCC/C=C\[C@@H]2C[C@@]2(C(=O)NS(=O)(=O)CC(=O)Nc2ccccc2)NC(=O)[C@@H]2C[C@@H](OC(=O)N3Cc4cccc(F)c4C3)CN2C1=O [Compound 1082],< 0.01 µM,–,> 0.1 µM
CC(C)(C)OC(=O)N[C@H]1CCCCC/C=C\[C@@H]2C[C@@]2(C(=O)NS(=O)(=O)c2ccccc2OCC(N)=O)NC(=O)[C@@H]2C[C@@H](OC(=O)N3Cc4cccc(F)c4C3)CN2C1=O [Compound 1083],< 0.01 µM,> 0.1 µM,–
CNC(=O)COc1ccccc1S(=O)(=O)NC(=O)[C@@]12C[C@H]1/C=C\CCCCC[C@H](NC(=O)OC(C)(C)C)C(=O)N1C[C@H](OC(=O)N3Cc4cccc(F)c4C3)C[C@H]1C(=O)N2 [Compound 1084],< 0.01 µM,> 0.1 µM,–
O=C(N[C@H]1CCCCC/C=C\[C@@H]2C[C@@]2(C(=O)NS(=O)(=O)C2CC2)NC(=O)[C@@H]2C[C@@H](OC(=O)N3Cc4cccc(F)c4C3)CN2C1=O)O[C@@H]1C[C@@H]2C[C@@H]2C1 [Compound 1085],< 0.01 µM,< 0.01 µM,–
CC(C)(C)OC(=O)N[C@H]1CCCCC/C=C\[C@@H]2C[C@@]2(C(=O)NS(=O)(=O)Cc2ccccc2)NC(=O)[C@@H]2C[C@@H](OC(=O)N3Cc4cccc(F)c4C3)CN2C1=O [Compound 1086],< 0.01 µM,> 0.1 µM,–
CO[C@@H]1C[C@H]2C(=O)N[C@]3(C(=O)NS(=O)(=O)C4(C)CC4)C[C@H]3/C=C\CCCCC[C@H](NC(=O)OC(C)(C)C)C(=O)N2C1 [Compound 1091],> 0.1 µM,> 0.1 µM,–
CC(C)(C)OC(=O)N[C@H]1CCCCC/C=C\[C@@H]2C[C@@]2(C(=O)NS(=O)(=O)c2ccccc2OCC(N)=O)NC(=O)[C@@H]2C[C@@H](O)CN2C1=O [Compound 1093],> 0.1 µM,> 0.1 µM,–
CNC(=O)COc1ccccc1S(=O)(=O)NC(=O)[C@@]12C[C@H]1/C=C\CCCCC[C@H](NC(=O)OC(C)(C)C)C(=O)N1C[C@H](O)C[C@H]1C(=O)N2 [Compound 1094],> 0.1 µM,> 0.1 µM,–
CO[C@@H]1C[C@H]2C(=O)N[C@]3(C(=O)NS(=O)(=O)CC(=O)Nc4ccccc4)C[C@H]3/C=C\CCCCC[C@H](NC(=O)OC(C)(C)C)C(=O)N2C1 [Compound 1099],< 0.01 µM,–,< 0.01 µM
CC1(S(=O)(=O)NC(=O)[C@@]23C[C@H]2/C=C\CCCCC[C@H](Nc2cc(F)cc(C(F)(F)F)c2)C(=O)N2C[C@H](OC(=O)N4Cc5cccc(F)c5C4)C[C@H]2C(=O)N3)CC1 [Compound 1100],< 0.01 µM,< 0.01 µM,–
CC1(S(=O)(=O)NC(=O)[C@@]23C[C@H]2/C=C\CCCCC[C@H](Nc2cccc(C(N)=O)c2)C(=O)N2C[C@H](OC(=O)N4Cc5cccc(F)c5C4)C[C@H]2C(=O)N3)CC1 [Compound 1101],< 0.01 µM,0.01 to 0.1 µM,–
CC1(S(=O)(=O)NC(=O)[C@@]23C[C@H]2/C=C\CCCCC[C@H](Nc2ccccc2)C(=O)N2C[C@H](OC(=O)N4Cc5cccc(F)c5C4)C[C@H]2C(=O)N3)CC1 [Compound 1102],< 0.01 µM,< 0.01 µM,–
Cc1cccc(N[C@H]2CCCCC/C=C\[C@@H]3C[C@@]3(C(=O)NS(=O)(=O)C3(C)CC3)NC(=O)[C@@H]3C[C@@H](OC(=O)N4Cc5cccc(F)c5C4)CN3C2=O)c1 [Compound 1103],< 0.01 µM,< 0.01 µM,–
COc1cccc(N[C@H]2CCCCC/C=C\[C@@H]3C[C@@]3(C(=O)NS(=O)(=O)C3(C)CC3)NC(=O)[C@@H]3C[C@@H](OC(=O)N4Cc5cccc(F)c5C4)CN3C2=O)c1 [Compound 1104],< 0.01 µM,< 0.01 µM,–
Cc1cc(F)cc(N[C@H]2CCCCC/C=C\[C@@H]3C[C@@]3(C(=O)NS(=O)(=O)C3(C)CC3)NC(=O)[C@@H]3C[C@@H](OC(=O)N4Cc5cccc(F)c5C4)CN3C2=O)c1 [Compound 1105],< 0.01 µM,< 0.01 µM,–
CN(C)C(=O)c1cccc(N[C@H]2CCCCC/C=C\[C@@H]3C[C@@]3(C(=O)NS(=O)(=O)C3(C)CC3)NC(=O)[C@@H]3C[C@@H](OC(=O)N4Cc5cccc(F)c5C4)CN3C2=O)c1 [Compound 1106],< 0.01 µM,0.01 to 0.1 µM,–
CC1(S(=O)(=O)NC(=O)[C@@]23C[C@H]2/C=C\CCCCC[C@H](Nc2ccc(F)c(F)c2)C(=O)N2C[C@H](OC(=O)N4Cc5cccc(F)c5C4)C[C@H]2C(=O)N3)CC1 [Compound 1107],< 0.01 µM,0.01 to 0.1 µM,–
CC1(S(=O)(=O)NC(=O)[C@@]23C[C@H]2/C=C\CCCCC[C@H](Nc2cc(F)c(F)c(F)c2)C(=O)N2C[C@H](OC(=O)N4Cc5cccc(F)c5C4)C[C@H]2C(=O)N3)CC1 [Compound 1108],< 0.01 µM,0.01 to 0.1 µM,–

Compound,IC50 (NS3/NS4 complexes),EC50 (hepatitis C replicon; [1]),EC50 (hepatitis C replicon)
CC1(S(=O)(=O)NC(=O)[C@@]23C[C@H]2/C=C\CCCCC[C@H](Nc2ccc(C#N)cc2)C(=O)N2C[C@H](OC(=O)N4Cc5cccc(F)c5C4)C[C@H]2C(=O)N3)CC1 [Compound 1109],< 0.01 µM,0.01 to 0.1 µM,–
CC(=O)Nc1cccc(N[C@H]2CCCCC/C=C\[C@@H]3C[C@@]3(C(=O)NS(=O)(=O)C3(C)CC3)NC(=O)[C@@H]3C[C@@H](OC(=O)N4Cc5cccc(F)c5C4)CN3C2=O)c1 [Compound 1110],< 0.01 µM,0.01 to 0.1 µM,–
CC1(S(=O)(=O)NC(=O)[C@@]23C[C@H]2/C=C\CCCCC[C@H](Nc2ccc(F)cc2)C(=O)N2C[C@H](OC(=O)N4Cc5cccc(F)c5C4)C[C@H]2C(=O)N3)CC1 [Compound 1111],< 0.01 µM,0.01 to 0.1 µM,–
CNC(=O)c1cccc(N[C@H]2CCCCC/C=C\[C@@H]3C[C@@]3(C(=O)NS(=O)(=O)C3(C)CC3)NC(=O)[C@@H]3C[C@@H](OC(=O)N4Cc5cccc(F)c5C4)CN3C2=O)c1 [Compound 1112],< 0.01 µM,> 0.1 µM,–
CC1(S(=O)(=O)NC(=O)[C@@]23C[C@H]2/C=C\CCCCC[C@H](Nc2cccc(C#N)c2)C(=O)N2C[C@H](OC(=O)N4Cc5cccc(F)c5C4)C[C@H]2C(=O)N3)CC1 [Compound 1113],< 0.01 µM,0.01 to 0.1 µM,–
Cc1ccccc1N[C@H]1CCCCC/C=C\[C@@H]2C[C@@]2(C(=O)NS(=O)(=O)C2(C)CC2)NC(=O)[C@@H]2C[C@@H](OC(=O)N3Cc4cccc(F)c4C3)CN2C1=O [Compound 1114],< 0.01 µM,0.01 to 0.1 µM,–
CC1(S(=O)(=O)NC(=O)[C@@]23C[C@H]2/C=C\CCCCC[C@H](Nc2cccc(OC(F)(F)F)c2)C(=O)N2C[C@H](OC(=O)N4Cc5cccc(F)c5C4)C[C@H]2C(=O)N3)CC1 [Compound 1115],< 0.01 µM,< 0.01 µM,–
CC1(S(=O)(=O)NC(=O)[C@@]23C[C@H]2/C=C\CCCCC[C@H](Nc2cccc(C(F)(F)F)c2)C(=O)N2C[C@H](OC(=O)N4Cc5cccc(F)c5C4)C[C@H]2C(=O)N3)CC1 [Compound 1116],< 0.01 µM,< 0.01 µM,–
CC1(S(=O)(=O)NC(=O)[C@@]23C[C@H]2/C=C\CCCCC[C@H](Nc2cccc(F)c2)C(=O)N2C[C@H](OC(=O)N4Cc5cccc(F)c5C4)C[C@H]2C(=O)N3)CC1 [Compound 1117],< 0.01 µM,0.01 to 0.1 µM,–
CC1(S(=O)(=O)NC(=O)[C@@]23C[C@H]2/C=C\CCCCC[C@H](Nc2ccc(C(F)(F)F)cc2)C(=O)N2C[C@H](OC(=O)N4Cc5cccc(F)c5C4)C[C@H]2C(=O)N3)CC1 [Compound 1118],< 0.01 µM,> 0.1 µM,–
CC1(S(=O)(=O)NC(=O)[C@@]23C[C@H]2/C=C\CCCCC[C@H](Nc2ccc(OC(F)(F)F)cc2)C(=O)N2C[C@H](OC(=O)N4Cc5cccc(F)c5C4)C[C@H]2C(=O)N3)CC1 [Compound 1119],< 0.01 µM,0.01 to 0.1 µM,–
CC1(S(=O)(=O)NC(=O)[C@@]23C[C@H]2/C=C\CCCCC[C@H](Nc2ccc(F)c(C(F)(F)F)c2)C(=O)N2C[C@H](OC(=O)N4Cc5cccc(F)c5C4)C[C@H]2C(=O)N3)CC1 [Compound 1120],< 0.01 µM,< 0.01 µM,–
CC(=O)Nc1ccc(N[C@H]2CCCCC/C=C\[C@@H]3C[C@@]3(C(=O)NS(=O)(=O)C3(C)CC3)NC(=O)[C@@H]3C[C@@H](OC(=O)N4Cc5cccc(F)c5C4)CN3C2=O)cc1 [Compound 1121],< 0.01 µM,0.01 to 0.1 µM,–
CC1(S(=O)(=O)NC(=O)[C@@]23C[C@H]2/C=C\CCCCC[C@H](Nc2cccc(NS(C)(=O)=O)c2)C(=O)N2C[C@H](OC(=O)N4Cc5cccc(F)c5C4)C[C@H]2C(=O)N3)CC1 [Compound 1122],< 0.01 µM,0.01 to 0.1 µM,–
CC1(S(=O)(=O)NC(=O)[C@@]23C[C@H]2/C=C\CCCCC[C@H](Nc2ccc(C(F)(F)F)c(F)c2)C(=O)N2C[C@H](OC(=O)N4Cc5cccc(F)c5C4)C[C@H]2C(=O)N3)CC1 [Compound 1123],< 0.01 µM,> 0.1 µM,–
CC1(S(=O)(=O)NC(=O)[C@@]23C[C@H]2/C=C\CCCCC[C@H](Nc2ccccc2F)C(=O)N2C[C@H](OC(=O)N4Cc5cccc(F)c5C4)C[C@H]2C(=O)N3)CC1 [Compound 1124],< 0.01 µM,0.01 to 0.1 µM,–
CC(C)(C)c1cccc(N[C@H]2CCCCC/C=C\[C@@H]3C[C@@]3(C(=O)NS(=O)(=O)C3(C)CC3)NC(=O)[C@@H]3C[C@@H](OC(=O)N4Cc5cccc(F)c5C4)CN3C2=O)c1 [Compound 1126],< 0.01 µM,< 0.01 µM,–
CC1(S(=O)(=O)NC(=O)[C@@]23C[C@H]2/C=C\CCCCC[C@H](Nc2nc4ccccc4o2)C(=O)N2C[C@H](OC(=O)N4Cc5cccc(F)c5C4)C[C@H]2C(=O)N3)CC1 [Compound 1127],< 0.01 µM,0.01 to 0.1 µM,–
O=C1N[C@]2(C(=O)NS(=O)(=O)C3CC3)C[C@H]2/C=C\CCCCC[C@H](Nc2cc(F)cc(C(F)(F)F)c2)C(=O)N2C[C@H](OC(=O)N3Cc4cccc(F)c4C3)C[C@@H]12 [Compound 1128],< 0.01 µM,< 0.01 µM,–
